These results are taken from patent US20250326748A1, “COMPOUNDS AND METHODS FOR MODULATING SPLICING” (REMIX THERAPEUTICS INC., priority 2022, published 2025).

Like-named read-outs stand apart in the source and are kept apart here. Some results are limits rather than exact numbers.

One series deals with Target C. Put plainly: HiBiT protein abundance assay, Target C (K562 HiBiT knock-in). It is filed as cell-based, human. The note with it: HiBiT knock-in cells, 24 hours. As to the method: (§1) Cells were maintained in IMDM with 10% FBS. Before the assay, cells were diluted with […] growth media (IMDM+1% FBS media) and were seeded in a 384-well plate at a density of 10000 cells/well (for each cell line listed in Table 6). Each compound was prepared as a 10-point 3-old serial dilution in DMSO with the top dose at a final concentration of 10 μM in the well. Unmodified K562 cells were added at the previously specified density with DMSO to serve as an assay baseline and positive control (PC) and DMSO only with the respective modified cell lines was added to the negative control (NC) columns. Final DMSO concentration was kept at or below 0.25%. Treated cell plates were placed in an incubator at 37° C. with 5% CO2 for 24 hours. After 24 hours, 25 μL of Complete HiBit Lytic reagent was added to each well at room temperature (e.g. one plate requiring 10 ml Lytic Buffer, 100 μL LgBiT Protein, 200 μL Lytic Substrate), shaken for 5 minutes at 600 RPM, then left to sit for 10 minutes for signal to stabilize before reading on a Spark Cyto plate reader (Tecan) with a 500 ms measurement time.
(§2) To determine compound effects on protein abundance of each target in Table 6, the percent response for each respective cell line was calculated at each compound concentration as follows:
(§3) For the normalized response at each concentration, a four-parameter logistical regression was fit to the data and the response was interpolated at the 50% value to determine a concentration for protein abundance at 50% (IC50) the untreated control.
(In general: HiBiT is a short tag that completes a luciferase, so light tracks the accessible tagged protein.)

For a further series, the system named is K562 cells. Put plainly: Cell viability, Cell Titer Glo 2.0 assay, K562. The note with it: 72 hours. A general note: ATP-based viability assays read luminescence as a measure of living cells.
For a further series, the system named is HiBiT-tagged HTT protein. Put plainly: HiBiT protein abundance assay, HTT (K562 HiBiT knock-in). It is filed as cell-based, human. The note with it: HiBiT knock-in cells, 24 hours. As to the method:
(§4) Compounds described herein were used to screen for effects on quantitative protein abundance using a HiBit assay system (Promega). Quantitative protein abundance was determined by measuring the protein levels of HiBit-tagged protein targets expressed in cell culture via luminescence using the Nano-Glo HiBiT Lytic Detection System, which uses a split complementation assay format to reconstitute NanoBiT enzyme to generate a luminescent signal. A protein abundance assay was developed such that endogenous protein targets could be modified with the HiBiT peptide tag and their abundance could be assessed after compound treatment. Briefly, K562 cell lines containing a HiBiT-modification were treated with various compounds described herein (e.g., compounds of Formulas (I), or (II)). After treatment for 24 hours, the protein abundance of a specific target was determined by measuring luminescence.
(§5) • Promega Nano-Glo HiBiT Lytic Detection System (cat #N3030) • Corning 384-well TC-treated microplates (cat #3570)
as §1, §2, §3

Another series has as its system HiBiT-tagged MYB protein. Put plainly: HiBiT protein abundance assay, MYB (K562 HiBiT knock-in). The note with it: HiBiT knock-in cells, 24 hours. It is filed as cell-based, human. As to the method:
as §4, §5, §1, §2, §3

In a further series the test system is HTT mRNA. Put plainly: Splicing RT-qPCR assay, HTT canonical (CJ) and alternative (AJ) junction mRNA. It is filed as cell-based, human. The note with it: Homo sapiens; for IC50: canonical junction mRNA; for AC50: alternative junction mRNA, read-out: HTT AJ (AC50, increase in AJ mRNA). An outline of the steps: (§6)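 Read-out: one-step RT-qPCR on crude lysates measuring exon-exon junction isoforms, CJ for the canonical transcript and AJ for compound-induced exon inclusion. Normalization used PPIA for adherent A673 and GAPDH or GUSB for K562. Cells received 11 doses, 3-fold apart, top 10 uM, for 24 h.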
(In qPCR the cycle at which signal appears reflects the starting amount.)

The subject of the next series is Target C mRNA. Put plainly: Splicing RT-qPCR panel, Target C canonical junction (CJ) mRNA. It is filed as cell-based, human. The note with it: Homo sapiens, read-out: Target C CJ (decrease in CJ mRNA levels, IC50). An outline of the steps: (§7)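 A673 cells (DMEM, 10% FBS) or K562 cells (IMDM, 10% FBS) treated 24 h at 37 °C with an 11-point 3-fold dilution, top 10 uM, DMSO ≤0.25%. Canonical-junction mRNA quantified in lysates by RT-qPCR, normalised to GAPDH, GUSB or PPIA and to DMSO (2^−ΔΔCt), then converted to % response.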

For the next series, the system named is MYB mRNA. Put plainly: Splicing RT-qPCR assay, MYB canonical (CJ) and alternative (AJ) junction mRNA. It is filed as cell-based, human. The note with it: Homo sapiens; for IC50: canonical junction mRNA; for AC50: alternative junction mRNA, read-out: MYB AJ (AC50, increase in AJ mRNA). In a few lines:
as §6

In the next series the test system is SMN2 mRNA. Put plainly: Splicing RT-qPCR panel, SMN2 canonical junction (CJ) mRNA. It is filed as cell-based, human. The note with it: Homo sapiens, read-out: SMN2 CJ (decrease in CJ mRNA levels, IC50). In a few lines: as §7
Setting [1] is: 24 h, RT-qPCR, A673 or K562 cells, 24 hours treatment, read-out: HTT CJ (IC50, decrease in CJ mRNA).
[2] abbreviates: qPCR panel, read-out: HTT CJ (decrease in CJ mRNA levels, IC50).
Setting [3] is: RT-qPCR, A673 or K562 cells, 24 hours treatment.
[4] abbreviates: qPCR panel, read-out: MYB CJ (decrease in CJ mRNA levels, IC50).
The mark [5] stands for this setting: RT-qPCR, A673 or K562 cells, 24 hours treatment, read-out: MYB CJ (IC50, decrease in CJ mRNA).

Regarding `CN[C@H]1CCN(c2cnc3nc(-c4cc5cn(C)nc5c(C)c4O)ccc3c2)C1` [Compound 111], the 50% inhibitory concentration (IC50) in the series with Target C, with HiBiT-tagged HTT protein and in the series on HiBiT-tagged MYB protein was below 100 nM throughout. Besides, the “Effect on Cell Viability, K562” value with K562 cells was “A (<100 nM)”.
Take `Cn1cc2cc(-c3cnc4cc(C5CCNCC5)ccc4n3)c(O)c(F)c2n1` [Compound 167, 7-fluoro-2-methyl-5-[6-(piperidin-4-yl)quinoxalin-2-yl]indazol-6-ol]: the IC50 in the series on Target C, in the series on HiBiT-tagged HTT protein and in the series on HiBiT-tagged MYB protein was below 100 nM throughout. Also, the “Effect on Cell Viability, K562” value in the series on K562 cells is “A (<100 nM)”.
On to `COc1nc(-c2cc(Cl)c3cc(N4C[C@H](C)N[C@@H](C)C4)cnc3n2)cn2cc(C)nc12` [Compound 403, 4-chloro-6-[(3S,5S)-3,5-dimethylpiperazin-1-yl]-2-{8-methoxy-2-methylimidazo[1,2-a]pyrazin-6-yl}-1,8-naphthyridine], for which the IC50 (usually the concentration that gives 50% inhibition) in the series on HTT mRNA (setting [1]) was above 10000 nM; in the series on HTT mRNA (setting [2]) it was above 10000 nM; in the series on Target C mRNA, above 10000 nM; with MYB mRNA (setting [4]), 1000 to 10000 nM; in the series on MYB mRNA (setting [5]), 1000 to 10000 nM; in the series on SMN2 mRNA, 100 to 1000 nM. Besides, the AC50 (in general, the midpoint of the concentration-response curve, whichever way the signal moves) in the series on HTT mRNA (setting [3]) was above 10000 nM; with MYB mRNA (setting [3]), 100 to 1000 nM. In addition, in the series with K562 cells, the “Effect on Cell Viability, K562” value is “C (1000-9999 nM)”.
For the compound `C[C@H]1CN(c2cnc3nc(-c4cc5cn(C)nc5cc4O)cc(Cl)c3c2)C[C@H](C)N1C` [Compound 404, 5-{4-chloro-6-[(3S,5S)-3,4,5-trimethylpiperazin-1-yl]-1,8-naphthyridin-2-yl}-2-methylindazol-6-ol], the IC50 in the series on HTT mRNA (setting [1]) is 1000 to 10000 nM; with HTT mRNA (setting [2]), 1000 to 10000 nM; with Target C mRNA it was 1000 to 10000 nM; in the series on MYB mRNA (setting [4]) it was 100 to 1000 nM; in the series with MYB mRNA (setting [5]), 100 to 1000 nM; in the series with SMN2 mRNA, below 100 nM. Further, the AC50 in the series on HTT mRNA (setting [3]) was 1000 to 10000 nM; with MYB mRNA (setting [3]), 100 to 1000 nM. Moreover, in the series with K562 cells, the “Effect on Cell Viability, K562” value is on record as “B (100-1000 nM)”.
